Source: ChEMBL document CHEMBL5584223, “Research progress of prodrugs for the treatment of cerebral ischemia” (Eur J Med Chem, 2024)
≈ marks a conversion by molar mass, not a printed value. Values belong to the compound of their own block, whether it stands above or below them.

Legend:
[1] = system: Platelet; experiment: Inhibition of ADP-induced platelet aggregation in New Zealand White rabbit; type: functional, cell-based; conditions: Oryctolagus cuniculus
[2] = system: Platelet; experiment: Inhibition of AA-induced platelet aggregation in New Zealand White rabbit; type: functional, cell-based; conditions: Oryctolagus cuniculus
[3] = system: Rattus norvegicus; experiment: Protection against MCAO-induced Sprague-Dawley rat assessed as reduction in infarct volume in brain at 20 mg/kg, iv measured for 24 hrs relative to control; type: functional; parameters: scale not given: the % may be the effect or the level left
[4] = Plasma concentration in human; type: ADME
[5] = AUC (0 to t) in Sprague-Dawley rat at 12.5 mg/kg, iv incubated for 24 hrs by LC-MS/MS analysis; type: ADME, organism-based; conditions: in vivo
[6] = Cmax in Sprague-Dawley rat at 12.5 mg/kg, iv measured for 24 hrs by LC-MS/MS analysis; type: ADME, organism-based; conditions: in vivo
[7] = AUC (0 to infinity) in Sprague-Dawley rat at 12.5 mg/kg, iv incubated for 24 hrs by LC-MS/MS analysis; type: ADME, organism-based; conditions: in vivo
[8] = system: Rattus norvegicus; experiment: Protection against MCAO-induced rat assessed as reduction in infarct volume in brain at 40 mg/kg, iv measured after 24 hrs relative to control; type: functional; parameters: scale not given: the % may be the effect or the level left
[9] = Ratio of drug concentration in rat brain to plasma measured after 0.5 hrs by LC-MS/MS analysis; type: ADME; conditions: read-out: BPR
[10] = Ratio of drug concentration in rat brain to plasma measured after 1 hrs by LC-MS/MS analysis; type: ADME; conditions: read-out: BPR
[11] = Half life in rat at 15 mg/kg, iv measured after 24 hrs by LC-MS/MS analysis; type: ADME, organism-based; conditions: in vivo
[12] = Ratio of drug concentration in rat brain to plasma measured after 6 hrs by LC-MS/MS analysis; type: ADME; conditions: read-out: BPR
[13] = system: Platelet; experiment: Inhibition of ADP-induced platelet aggregation in New Zealand White rabbit at 1 uM relative to control; type: functional; conditions: Oryctolagus cuniculus
[14] = system: Mus musculus; experiment: Neuroprotective activity against hypoxia-ischemia brain injured mouse model assessed as reduction in infarct volume at 20 mg/kg, iv measured after 72 hrs by immuno-histochemistry based staining analysis relative to control; type: functional; parameters: scale not given: the % may be the effect or the level left
[15] = system: SH-SY5Y; experiment: Neuroprotective activity against MPP+-induced human SH-SY5Y cells assessed as reduction in cell death at 20 uM measured after 48 hrs by MTT assay; type: functional; parameters: scale not given: the % may be the effect or the level left
[16] = Lipophilicity, logP of compound; type: physicochemical; conditions: octanol/water
[17] = Solubility of compound in PBS at pH 7.4; type: physicochemical

- IC50 [1]: 700 nM
- IC50 [2]: 420 nM
Structure (SMILES): CCCC[C@H]1OC(=O)c2ccccc21
- Activity [3]: 78.21%

Structure (SMILES): O=C(Nc1cc(C(F)(F)F)cc(C(F)(F)F)c1)c1cc(Cl)ccc1OP(=O)(O)O
- Cp [4]: > 500 ng/mL

Structure (SMILES): CCCC[C@H](OC(C)=O)c1ccccc1C(=O)O
- Activity [3]: 66.12%

- AUCt [5]: 3927.4 h/ng/mL
- Cmax [6]: 3330 ng/mL
- AUC [7]: 4579 h/ng/mL
Structure (SMILES): O=P([O-])([O-])Oc1ccc(-c2cc(=S)ss2)cc1.[Na+].[Na+]

- IC50 [1]: 100 nM
- IC50 [2]: 110 nM
Structure (SMILES): CCCC[C@H](OC(=O)CN1CCC(O[N+](=O)[O-])CC1)c1ccccc1C(=O)OCCCCCCOc1ccc(-c2cc(=S)ss2)cc1

Structure (SMILES): CCCC[C@H](OC(C)=O)c1ccccc1C(=O)O.N=C(N)NCCC[C@H](N)C(=O)O
- Activity [8]: 78.21%

- Kp at 0.5 h [9]: 1.99
- Kp at 1 h [10]: 1.27
- half-life [11]: 44 min
- Kp at 6 h [12]: 4.8
Structure (SMILES): CCCCC(OC(=O)CN(C)C)c1ccccc1C(=O)Oc1ccc(/C=C/C(=O)OC[C@@H]2OC(O)[C@@H](O)[C@H](O)[C@H]2O)cc1OC (stereo partly specified)

Structure (SMILES): CCCCC(OC(=O)CN(CC)CC)c1ccccc1C(=O)Oc1ccc(/C=C/C(=O)OCCCCO[N+](=O)[O-])cc1OC (stereo unspecified)
- Activity [8]: 18.3%
- inhibition at 1 µM [13]: 88.5%

Structure (SMILES): CC(=N)NCc1cccc(/C=[N+](\[O-])C(C)(C)C)c1
- Activity [14]: 30%

Structure (SMILES): Cc1cc(O)n(-c2ccc(F)cc2)n1
- Activity [3]: 32.46%

Structure (SMILES): COC(=O)[C@H]1O[C@@H](Oc2cc3oc(-c4ccc(OCCCCOC(=O)C5=CCc6cc(OC)ccc6N5C)cc4)cc(=O)c3c(O)c2O)[C@H](O)[C@H](O)[C@H]1O (single isomer, unassigned)
- Activity [15]: 65%
- logP [16]: 1.76
- solubility [17]: 183 µg/mL (≈ 245 µM)

Structure (SMILES): CC(=O)Oc1ccccc1C(=O)O [ASPIRIN]
- inhibition at 1 µM [13]: 73.7%

Structure (SMILES): CCCCC1OC(=O)c2ccccc21 (stereo not drawn) [RAC-3-N-BUTYLPHTHALIDE]
- inhibition at 1 µM [13]: 51.4%

Structure (SMILES): O=C(O)[C@H]1O[C@@H](Oc2cc3oc(-c4ccc(O)cc4)cc(=O)c3c(O)c2O)[C@H](O)[C@@H](O)[C@@H]1O [SCUTELLARIN]
- logP [16]: 0.015

- IC50 [1]: 360 nM
Structure (SMILES): Clc1ccccc1CN1CCc2sccc2C1 [TICLOPIDINE]
